Values quoted from earlier work, collected in patent US20110207832A1, “SKIN DISINFECTANT COMPOSITION AND METHODS FOR MANUFACTURING AND USING” (Skinvisible Pharmaceuticals, Inc., priority 2010, published 2011).

Columns and labels:
[1] = in vivo

Compound | water solubility (in words) | dermal toxicity [1]
[H]/N=C(\N/C(=N/[H])NCCCCCCNC(=N)NC(=N)Nc1ccc(Cl)cc1)Nc1ccc(Cl)cc1 [chlorhexidine, 1,6-di(4-chlorophenyl-diguanido) hexane] | practically insoluble in water | 
Poly(vinylpyrrolidone/1-hexadecene) [PVPH] |  | no demonstrable dermal toxicity
Poly(vinylpyrrolidone/1-eicosene) [PVPE] |  | no demonstrable dermal toxicity
